# Biological target: T1, human PDHK2 (hPDHK2) (Homo sapiens, UniProt Q15119)
# T1 construct: made in house; host or cells: Escherichia coli BL21(DE3), pET-17b vector
# Test: Inhibitory action of PDHK2 activity (residual PDH activity, NADH absorbance at 340 nm)
# Assay type: biochemical
# Conditions: PDH/hPDHK2 complex, PDHK reaction 45 min at room temperature
# Method: In the case of human PDHK2 (hPDHK2, NCBI Reference Database Accession number NM_002611.4), modified hPDHK2 cDNA wherein FLAG-Tag sequence was added to the N terminus of hPDHK2 cDNA clone (pReceiver-M01/PDK2-GeneCopoeia) as the base was prepared by polymerase chain reaction (PCR) and ligated to the NdeI/EcoRI site of pET-17b vector (Merck KGaA, Catalog Number 69663-3). The recombinant construct was transformed into Escherichia coli DH5α. The recombinant clones were identified, and plasmid DNA was isolated and subjected to the DNA sequence analysis. One clone which had the expected nucleic acid sequence was selected for expression work.
# For expression of hPDHK2 activity, Escherichia coli strain BL21(DE3) cells (Merck KGaA, Catalog Number 69450-4) were transformed with the pET17b vector containing modified hPDHK2 cDNA. The Escherichia coli were grown to an optical density 0.6 ([…]) at 30° C. Protein expression was induced by the addition of 500 μmol/L isopropyl-β-thiogalactopyranoside. The Escherichia coli were cultured at 20° C. for 17-18 hr and harvested by centrifugation. The harvested Escherichia coli was resuspended in a suspension buffer (20 mmol/L HEPES-NaOH, 500 mmol/L sodium chloride, 1% ethylene glycol, 0.1% Pluronic (registered trademark) F-68 (pH 8.0), cOmplete, EDTA-free (Roche) (pH 8.0)), and disrupted by a microfluidizer M-110H (MIZUHO INDUSTRIAL CO., LTD.). The precipitate was removed by centrifugation and the supernatant was added to DDDDK-tagged Protein PURIFICATION GEL (MEDICAL & BIOLOGICAL LABORATORIES CO., LTD., Code No. 3329). DDDDK-tagged Protein PURIFICATION GEL was washed with a washing buffer (20 mmol/L HEPES-NaOH, 500 mmol/L sodium chloride, 1% ethylene glycol, 0.1% Pluronic F-68 (pH 8.0)) and the bound protein was eluted with elution buffer 1 (20 mmol/L HEPES-NaOH, 100 μg/mL peptide (amino acid sequence DYKDDDDK) (SEQ ID NO: 1), 500 mmol/L sodium chloride, 1% ethylene glycol, 0.1% Pluronic F-68 (pH 8.0)). The eluted fractions containing FLAG-Tagged protein were pooled, concentrated by an ultrafiltration method, added to a gel filtration column (HiLoad 26/60 Superdex 200 (GE Healthcare Life Sciences, Code No. 17-1070-01)), and eluted with elution buffer 2 (20 mmol/L HEPES-NaOH, 150 mmol/L sodium chloride, 0.5 mmol/L ethylenediaminetetraacetic acid (EDTA), 1% ethylene glycol, 0.1% Pluronic F-68 (pH 8.0)). The eluted fractions were pooled and preserved at −80° C.
# PDH (porcine heart PDH complex, Sigma P7032) and 0.5 μg/mL hPDHK2 were mixed in an assay buffer (50 mmol/L 3-morpholinopropanesulfonic acid (pH 7.0), 20 mmol/L dipotassium hydrogen phosphate, 60 mmol/L potassium chloride, 2 mmol/L magnesium chloride, 0.4 mmol/L EDTA, 0.2% poloxamer, 2 mmol/L dithiothreitol) so that the final concentration of PDH was 0.025 U/mL, and the mixture was incubated at 4° C. overnight to obtain a PDH/hPDHK2 complex solution.
# PDH was mixed with the assay buffer so that the final concentration was 0.025 U/mL, and the mixture was incubated at 4° C. overnight to prepare a PDH solution.
# The test compounds were diluted with DMSO. To measure an inhibitory action of the test compound on the PDHK activity in the PDH/hPDHK2 complex solution, PDH/hPDHK2 complex solution (20 μL), test compound (1.5 μL) and 1.06 μmol/L ATP (diluted with assay buffer) (8.5 μL) were added to a 384 well microplate (Greiner Bio-One 781801) and PDHK reaction was performed at room temperature for 45 min (test compound well). DMSO (1.5 μL) was added to control wells instead of test compound. In addition, DMSO (1.5 μL) was added to blank wells instead of the test compound, and PDH solution was added instead of the PDH/hPDHK2 complex solution. To measure an inhibitory action of the test compound on the PDHK activity inherent in the PDH solution, a test compound was added and the PDH solution instead of the PDH/hPDHK2 complex solution was added to a blank+test compound well. […]
row,SMILES,IC50 [nM]
1,COC(c1nnc2n1C[C@H](C)n1c-2cnc1[C@@](C)(O)C(F)(F)F)(C(F)(F)F)C(F)(F)F [Example 93],21
2,"C[C@H]1Cn2nc(OCC(C)(C)O)cc2-c2cnc([C@@](C)(O)C(F)(F)F)n21 [Example 52, (R)-1,1,1-trifluoro-2-((S)-9-(2-hydroxy-2-methylpropoxy)-5-methyl-5,6-dihydroimidazo[1,5-a]pyrazolo[5,1-c]pyrazin-3-yl)propan-2-ol]",21
3,C[C@H]1Cn2nc(OCC3CCN(S(C)(=O)=O)CC3)cc2-c2cnc([C@@](C)(O)C(F)(F)F)n21 [Example 68],14
4,C[C@H]1Cn2nc(C(C)(C)C)cc2-c2cnc([C@@](C)(O)C(F)(F)F)n21 [Example 15],14
5,C[C@H]1Cn2nc(OCCN3CCCC3=O)cc2-c2cnc([C@@](C)(O)C(F)(F)F)n21 [Example 63],14
6,CC(=O)N1CCC(c2cc3n(n2)C[C@H](C)n2c-3cnc2[C@@](C)(O)C(F)(F)F)CC1 [Example 75],19
7,CC(=O)N1CCC(COc2cc3n(n2)C[C@H](C)n2c-3cnc2[C@@](C)(O)C(F)(F)F)CC1 [Example 67],19
8,C[C@H]1Cn2c(nnc2C(C)(F)F)-c2cnc([C@@](C)(O)C(F)(F)F)n21 [Example 90],15
9,C[C@H]1Cn2nc(OC3CCOCC3)cc2-c2cnc([C@@](C)(O)C(F)(F)F)n21 [Example 77],17
10,C[C@H]1Cn2nc(OCC3CN(C(=O)c4ccc(F)cc4)C3)cc2-c2cnc([C@@](C)(O)C(F)(F)F)n21 [Example 66],18
11,C[C@H]1Cn2nc(Oc3cc(C4CC4)ncn3)cc2-c2cnc([C@@](C)(O)C(F)(F)F)n21 [Example 72],12
12,C[C@H]1Cn2nc(C(=O)O)cc2-c2cnc([C@@](C)(O)C(F)(F)F)n21 [Example 41],21
13,C[C@H]1Cn2nc(Oc3cc(C(F)(F)F)ncn3)cc2-c2cnc([C@@](C)(O)C(F)(F)F)n21 [Example 70],19
14,"C[C@H]1Cc2c(noc2C2CC2)-c2cnc([C@@](C)(O)C(F)(F)F)n21 (racemic) [Example 35, 2-(3-cyclopropyl-5-methyl-4,5-dihydroimidazo[1,5-a]isoxazolo[3,4-c]pyridin-7-yl)-1,1,1-trifluoropropan-2-ol]",19
15,C[C@H]1Cn2nc(C(C)(O)C(F)(F)F)cc2-c2cnc([C@@](C)(O)C(F)(F)F)n21 (mixture of isomers) [Example 26],31
16,C[C@H]1Cn2c(cc(=O)n2C(F)F)-c2cnc([C@@](C)(O)C(F)(F)F)n21 [Example 103],26
17,CC[C@H]1Cn2nc(C(F)(F)F)cc2-c2cnc([C@@](C)(O)C(F)(F)F)n21 [Example 12],> 100
18,C[C@H]1Cc2c(C(C)(C)O)noc2-c2cnc([C@@](C)(O)C(F)(F)F)n21 (racemic) [Example 25],18
19,C[C@H]1Cc2c(C(F)(F)F)noc2-c2cnc([C@@](C)(O)C(F)(F)F)n21 (racemic) [Example 3],17
20,C[C@H]1Cn2nc(OCCOC(F)(F)F)cc2-c2cnc([C@@](C)(O)C(F)(F)F)n21 [Example 61],14
21,"C[C@H]1Cc2ccccc2-c2cnc([C@@](C)(O)C(F)(F)F)n21 (racemic) [Example 1, 1,1,1-trifluoro-2-(5-methyl-5,6-dihydroimidazo[5,1-a]isoquinolin-3-yl)propan-2-ol]",16
22,C[C@H]1Cn2nc(OCC(O)(C(F)(F)F)C(F)(F)F)cc2-c2cnc([C@@](C)(O)C(F)(F)F)n21 [Example 85],23
23,CC(=O)N1CC(COc2cc3n(n2)C[C@H](C)n2c-3cnc2[C@@](C)(O)C(F)(F)F)C1 [Example 64],19
24,C[C@H]1Cn2nc(OCF)cc2-c2cnc([C@@](C)(O)C(F)(F)F)n21 [Example 48],14
25,"C[C@H]1Cc2c(C(F)(F)F)n[nH]c2-c2cnc([C@@](C)(O)C(F)(F)F)n21 (racemic) [Example 50, 1,1,1-trifluoro-2-(5-methyl-3-(trifluoromethyl)-4,5-dihydro-1H-imidazo[1,5-a]pyrazolo[3,4-c]pyridin-7-yl)propan-2-ol]",27
26,C[C@H]1Cn2nc(Oc3ccc(C#N)nc3)cc2-c2cnc([C@@](C)(O)C(F)(F)F)n21 [Example 95],18
27,Cc1cc2n(n1)C[C@H](C)n1c-2cnc1[C@@](C)(O)C(F)(F)F [Example 9],13
28,"C[C@H]1Cc2cnc(C(F)(F)F)nc2-c2cnc([C@@](C)(O)C(F)(F)F)n21 (racemic) [Example 6, 1,1,1-trifluoro-2-(6-methyl-2-(trifluoromethyl)-5,6-dihydroimidazo[1′,5′:1,2]pyrido[3,4-d]pyrimidin-8-yl)propan-2-ol]",220
29,C[C@H]1Cn2nc(C(F)(F)F)cc2-c2cnc([C@@](C)(O)C(F)(F)F)n21 [Example 4],14

# Second part, the compound after the results:
row,IC50 [nM],SMILES
1,11,C[C@H]1Cn2c(nnc2C(C)(C)F)-c2cnc([C@@](C)(O)C(F)(F)F)n21 [Example 91]
2,8.8,C[C@H]1Cn2nc(OC3CN(C(=O)c4ccc(F)cc4)C3)cc2-c2cnc([C@@](C)(O)C(F)(F)F)n21 [Example 58]
3,9.3,C[C@H]1Cn2c(-c3ccc(C(F)(F)F)cc3)nnc2-c2cnc([C@@](C)(O)C(F)(F)F)n21 [Example 54]
4,6.8,CC(C)C(F)(F)c1nnc2n1C[C@H](C)n1c-2cnc1[C@@](C)(O)C(F)(F)F [Example 60]
5,12,C[C@H]1Cn2nc(OCC(F)(F)F)cc2-c2cnc([C@@](C)(O)C(F)(F)F)n21 [Example 74]
6,8.8,C[C@H]1Cn2nc(OCc3ccc(C#N)cc3)cc2-c2cnc([C@@](C)(O)C(F)(F)F)n21 [Example 49]
7,12,C[C@H]1Cn2nc(OCCC(C)(C)O)cc2-c2cnc([C@@](C)(O)C(F)(F)F)n21 [Example 30]
8,12,C[C@H]1Cn2c(-c3ccc(F)c(OC(C)(C)C)c3)nnc2-c2cnc([C@@](C)(O)C(F)(F)F)n21 [Example 98]
9,7.3,C[C@H]1Cn2c(nnc2C2(C)CC2)-c2cnc([C@@](C)(O)C(F)(F)F)n21 [Example 17]
10,8.7,C[C@H]1Cn2c(nnc2C(F)(F)c2ccc(C(F)(F)F)cn2)-c2cnc([C@@](C)(O)C(F)(F)F)n21 [Example 87]
11,6.3,C[C@H]1Cn2c(nnc2C2CC2)-c2cnc([C@@](C)(O)C(F)(F)F)n21 [Example 14]
12,7,C[C@H]1Cn2c(-c3ccc(F)cc3C(F)(F)F)nnc2-c2cnc([C@@](C)(O)C(F)(F)F)n21 [Example 56]
13,7.4,C[C@H]1Cn2c(nnc2C(F)(F)c2ccccc2Cl)-c2cnc([C@@](C)(O)C(F)(F)F)n21 [Example 73]
14,11,C[C@H]1Cn2c(nnc2C2(C(F)(F)F)CC2)-c2cnc([C@@](C)(O)C(F)(F)F)n21 [Example 40]
15,11,C[C@H]1Cn2cc(C(F)(F)F)nc2-c2cnc([C@@](C)(O)C(F)(F)F)n21 [Example 19]
16,10,CCC(F)(F)c1nnc2n1C[C@H](C)n1c-2cnc1[C@@](C)(O)C(F)(F)F [Example 59]
17,6.2,C[C@H]1Cn2c(nnc2C2CC2c2ccccc2)-c2cnc([C@@](C)(O)C(F)(F)F)n21 (some centres unmarked) [Example 97]

# Same assay, conditions: at 0.1 μM, given when IC50 value could not be calculated; read-out: hPDHK2 inhibitory rate
row,inhibition at 0.1 µM [%],SMILES
1,35,CC[C@H]1Cn2nc(C(F)(F)F)cc2-c2cnc([C@@](C)(O)C(F)(F)F)n21 [Example 12]

# Source: US20230025880A1, “FUSED TRICYCLIC COMPOUND AND MEDICINAL USE THEREOF” (JAPAN TOBACCO INC., priority 2020, published 2023)
